What was measured:
Test in all cases: relative viability (nuclei count vs DMSO), 5 days (fraction); higher = more cells survive
[1] = compound: N=C1NC(=O)/C(=C/c2ccc(O)cc2)S1 [Mirin] + CCNC(=O)c1noc(-c2cc(C(C)C)c(O)cc2O)c1-c1ccc(CN2CCOCC2)cc1 [Luminespib] (partner 0.01 µM)
How it was run: (§1)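 Lung cancer cell lines were seeded in 1536-well plates and dosed by pin tool the next day, with either a single drug or a fixed anchor-drug dose combined with five library-drug doses (not always all listed) spaced in √10 steps. Five days later, one step fixed the cells and stained their nuclei (final 0.05% Triton X-100, 1% formaldehyde, 1 ug/ml Hoechst), and nuclei were counted on 4× images. Relative viability is the nuclei count in treated wells divided by the count in vehicle wells, and each value is the median of duplicate plates.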

[2] = compound: N=C1NC(=O)/C(=C/c2ccc(O)cc2)S1 [Mirin] + CS(=O)(=O)CCNCc1ccc(-c2ccc3ncnc(Nc4ccc(OCc5cccc(F)c5)c(Cl)c4)c3c2)o1 [Lapatinib] (partner 2 µM)
How it was run: as §1

[3] = compound: CCn1c(-c2nonc2N)nc2cnc(Oc3cccc(NC(=O)c4ccc(OCCN5CCOCC5)cc4)c3)cc21 + CS(=O)(=O)N1CCN(Cc2cc3nc(-c4cccc5[nH]ncc45)nc(N4CCOCC4)c3s2)CC1 [Pictilisib] (partner 1 µM)
How it was run: as §1

[4] = compound: CCC1=CN=CN=C1N2CCN(CC2)CC3=NC4=C(N3)C=C(C=C4)C(F)(F)F + Cc1nc(Nc2ncc(C(=O)Nc3c(C)cccc3Cl)s2)cc(N2CCN(CCO)CC2)n1 [Dasatinib] (partner 0.075 µM)
How it was run: as §1

Cell Line	relative viability ([1]; first compound 0.25 µM)	relative viability ([1]; first compound 0.7906 µM)	relative viability ([1]; first compound 2.5 µM)	relative viability ([1]; first compound 7.906 µM)	relative viability ([1]; first compound 25 µM)	relative viability ([2]; first compound 0.25 µM)	relative viability ([2]; first compound 0.7906 µM)	relative viability ([2]; first compound 2.5 µM)	relative viability ([2]; first compound 7.906 µM)	relative viability ([2]; first compound 25 µM)	relative viability ([3]; first compound 0.04 µM)	relative viability ([3]; first compound 0.1265 µM)	relative viability ([3]; first compound 0.4 µM)	relative viability ([3]; first compound 1.265 µM)	relative viability ([3]; first compound 4 µM)	relative viability ([4]; first compound 0.04 µM)	relative viability ([4]; first compound 0.1265 µM)	relative viability ([4]; first compound 0.4 µM)	relative viability ([4]; first compound 1.265 µM)	relative viability ([4]; first compound 4 µM)
SW 1573	0.228	0.272	0.247	0.201	0.205	1.13	1.16	1.09	0.952	0.908	0.545	0.507	0.492	0.487	0.312	0.382	0.453	0.5	0.494	0.452
NCI-H2085	0.422	0.343	0.46	0.473	0.453	0.828	0.791	0.823	0.807	0.628	0.53	0.692	0.664	0.596	0.524	0.233	0.245	0.303	0.218	0.251
NCI-H520	0.234	0.241	0.225	0.235	0.211	0.97	0.605	0.857	0.551	0.391	0.326	0.31	0.256	0.265	0.182	0.212	0.181	0.224	0.206	0.226
Calu-6						1.11	1.12	1.06	1.01	0.983	1.06	0.808	0.797	0.54	0.403					
SK-LU-1	0.193	0.188	0.228	0.163	0.197	0.974	0.88	0.792	0.788	0.541	0.686	0.448	0.432	0.336	0.416	0.18	0.172	0.2	0.169	0.205
LCLC-103H	0.931	1.06	0.93	1.05	1						0.764	0.596	0.435	0.455	0.576	0.473	0.444	0.414	0.483	0.474
HCC-15	0.353	0.391	0.289	0.452	0.274	0.874	0.546	0.9	0.803	0.79	0.955	0.718	0.701	0.664	0.744	0.632	0.552	0.597	0.624	0.594
H3255	0.825	0.79	0.943	0.712	0.821	0.25	0.307	0.236	0.241	0.218	0.63	0.593	0.517	0.473	0.52	0.308	0.294	0.347	0.367	0.317
NCI-H1792	0.34	0.461	0.438		0.423	0.891	0.814	0.97	0.829	0.942	0.267	0.28		0.231	0.285	1	0.754	0.515	0.685	0.602
NCI-H1563	0.54	0.6	0.476	0.589	0.5	1.05	1.09	1.09	0.867	0.853	0.629	0.678	0.638	0.66	0.569	0.472	0.476	0.489	0.435	0.513
NCI-H647	0.115	0.11	0.17	0.241	0.09	1.31	1.09	1.07	1.1	0.427	0.614	0.307	0.249	0.207	0.276	0.166	0.174	0.186	0.223	0.201
NCI-H2126	0.86	0.881	0.934	0.9	0.898	0.77	0.735	0.765	0.717	0.621	0.568	0.525	0.461	0.567	0.649	0.589	0.593	0.535	0.516	0.485
NCI-H522	0.884	1.11	1.23	0.875	0.801											0.849	0.819	0.88	0.866	0.923
HCC-44	0.968	1.19	0.805	0.939	1.05	1.07	1.12	1.05	1.04	1.28	0.557	0.529	0.276	0.236	0.244					
NCI-H1299						0.984	0.973	0.977	1.01	1.12	0.956	0.735	0.74	0.618	0.393					
HCC-78						0.921	0.761	0.837	0.774	0.552	0.3	0.311	0.208	0.262	0.367	0.327	0.416	0.374	0.316	0.363
ChaGo-K-1	0.555	0.295	0.705	0.429	0.306						1.13	0.652	0.507		0.425	0.654	0.635	0.555	0.615	0.492
EBC-1						0.203	0.208	0.219	0.201	0.221	0.355	0.319	0.35	0.31	0.332					
IA-LM						0.676	0.851	1.09	0.431	0.608	0.751	0.538	0.634	0.733	0.674					
NCI-H1703						1.11	1.23	1.29	0.768	0.826	0.242	0.312	0.206	0.215	0.188					

From the supplement of paper PMC10307832
